Test results taken from ChEMBL document CHEMBL4732219, “Synthesis and evaluation of cyclopentane-based muraymycin analogs targeting MraY” (Eur J Med Chem, 2021).
Values after ≈ are worked out from the molar mass of the structure shown.

Columns and labels:
[1] = molecular target: T1, Phospho-N-acetylmuramoyl-pentapeptide-transferase (Aquifex aeolicus (strain VF5), UniProt O66465); test: Inhibition of Aquifex aeolicus MraY using UDP-MurNAc-pentapeptide as substrate measured after 5 mins by UMP-Glo glycosyltransferase assay
T1 sequence (O66465 whole entry): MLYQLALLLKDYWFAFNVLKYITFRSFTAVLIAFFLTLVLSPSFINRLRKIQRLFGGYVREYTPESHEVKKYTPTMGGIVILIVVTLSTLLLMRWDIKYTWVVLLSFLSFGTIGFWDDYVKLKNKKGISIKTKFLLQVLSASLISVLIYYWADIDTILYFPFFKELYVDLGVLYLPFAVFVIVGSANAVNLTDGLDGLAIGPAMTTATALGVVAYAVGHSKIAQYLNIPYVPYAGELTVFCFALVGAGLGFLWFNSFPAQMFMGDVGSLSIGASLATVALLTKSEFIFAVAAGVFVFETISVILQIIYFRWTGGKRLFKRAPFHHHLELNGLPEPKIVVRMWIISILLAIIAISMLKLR

[2] = test system: Staphylococcus aureus; test: Antibacterial activity against Staphylococcus aureus SA113 assessed as growth inhibition; format: functional

IC50 [1]	MIC [2]	SMILES
75 µM	54 µg/mL (≈ 60.4 µM)	CCCCCCCCCCCCCCCCC(=O)N[C@@H](CCCNC(=N)N)C(=O)NCCCN[C@H](C(=O)OC)[C@H](O[C@@H]1O[C@H](CN)[C@@H](O)[C@H]1O)[C@@H]1CC[C@H](n2ccc(=O)[nH]c2=O)C1
340 µM	–	CC(C)(C)OC(=O)[C@@H](NC(=O)OCc1ccccc1)[C@H](O[C@@H]1O[C@H](CN)[C@@H](O)[C@H]1O)[C@@H]1CC[C@H](n2ccc(=O)[nH]c2=O)C1
500 µM	–	NC[C@H]1O[C@@H](O[C@H]([C@@H]2CC[C@H](n3ccc(=O)[nH]c3=O)C2)[C@H](NC(=O)OCc2ccccc2)C(=O)O)[C@H](O)[C@@H]1O
